Source: ChEMBL document CHEMBL1147815, “Stilbene-based anticancer agents: resveratrol analogues active toward HL60 leukemic cells with a non-specific phase mechanism” (Bioorg Med Chem Lett, 2006)
Calls of active or inactive are those of the source. No cut-off for these calls is given here.

Experiments:
Assay type in all cases: functional, cell-based
HL-60 [1] = test: Induction of apoptotic sub-G0/G1 phase in HL60 cells; settings: Homo sapiens
HL-60 [2] = test: Antiproliferative activity against human HL60 cells
HL-60 [3] = test: Induction of partial block of S phase in HL60 cells; settings: Homo sapiens
HL-60 [4] = test: Apoptosis inducing activity in human HL60 cells
HL-60 [5] = test: Decrease of HL60 cells at G0/G1 phase; settings: Homo sapiens
HL-60 [6] = test: Decrease of HL60 cells at G2/M phase; settings: Homo sapiens
HL-60 [7] = test: Decrease of HL60 cells at S phase; settings: Homo sapiens

Row | SMILES | Activity (HL-60 [1]) | IC50 (HL-60 [2]) | Activity (HL-60 [3]) | AC50 (HL-60 [4]) | Activity (HL-60 [5]) | Activity (HL-60 [6]) | Activity (HL-60 [7])
1 | COc1cc(/C=C\c2cc(OC)c(OC)c(OC)c2)cc(OC)c1 | Active | 1.8 µM | Active | 2.6 µM |  |  | 
2 | COc1cc(/C=C/c2cc(OC)c(OC)c(OC)c2)cc(OC)c1 |  | 22 µM |  | 42 µM |  |  | 
3 | COc1ccc(/C=C\c2cc(OC)cc(OC)c2)cc1 [8Z-3,4',5-TRIMETHOXYSTILBENE] | Active | 0.15 µM |  | 0.24 µM | Active | Active | Active
4 | COc1cccc(/C=C/c2cc(OC)cc(OC)c2)c1 |  | 37 µM |  | 70 µM |  |  | 
5 | COc1ccc(/C=C/c2cc(OC)cc(OC)c2)cc1 | Active |  | Active |  |  |  | 
6 | COc1cccc(/C=C\c2cc(OC)cc(OC)c2)c1 |  | 2.8 µM |  | 5.4 µM |  |  | 
7 | Cc1ccc(/C=C/c2ccc(O)cc2)cc1C |  | 3.5 µM |  | 6 µM |  |  | 
8 | O=[N+]([O-])c1ccc(/C=C/c2ccc(O)cc2)cc1 | Active | 2.5 µM | Active | 4.8 µM |  |  | 
